Test results reported in paper PMC7318006, “Anidulafungin and Micafungin Concentrations in Cerebrospinal Fluid and in Cerebral Cortex” (Antimicrobial Agents and Chemotherapy, 2020).
Like-named read-outs stand apart in the source and are kept apart here. Starred links: 1 amine or outer side, 2 acyl side, 3 side chain; linkers in the order of their positions; H or OH if unused. Positions of bridges follow the written chain, without caps; N, C: chain ends. Non-standard residues stand in square brackets, D forms with d. Residues, ends and D or L forms follow the SMILES beside them. *: point of attachment. hTyr(3S-OH,4S-OH,3'-OSO3H) = N[C@H](C(=O)O)[C@H](O)[C@@H](O)c1ccc(O)c(OS(=O)(=O)O)c1; pTerphenylCO(4''-OnC5H11) = CCCCCOc1ccc(-c2ccc(-c3ccc(C(=O)*)cc3)cc2)cc1; Orn(4R-OH,5R-OH) = O=C([C@H](C[C@@H](O)[C@@H](O)N[*:3])N[*:1])[*:2]; hTyr(3S-OH,4S-OH) = N[C@H](C(=O)O)[C@H](O)[C@@H](O)c1ccc(O)cc1; Pro(3S-OH,4S-Me) = C[C@H]1CN[C@H](C(=O)O)[C@H]1O; X1 = CCCCCOc1ccc(-c2cc(-c3ccc(C(=O)*)cc3)no2)cc1; Gln(3R-OH) = NC(=O)C[C@@H](O)[C@H](N)C(=O)O; Hyp = O=C(O)[C@@H]1C[C@@H](O)CN1

Experiments:
[1] = cited from earlier work
[2] = cited from earlier work; remark: listed apart in the source
Experimental: In brain specimens, we cannot rule out minor agonal or postmortem changes of anidulafungin and micafungin concentrations, although anidulafungin and micafungin were stable in the brains of deceased patients for at least 96 h. Brain specimens consist of various compartments, e.g., different cells, extracellular matrix, and blood vessels. Anidulafungin and micafungin were not quantified on a cellular level or in different brain areas. Echinocandin extraction from human brain might yield slightly lower recovery than extraction from external standards. In rats, [^3H]caspofungin brain concentration ...

[3] = Stability in brain tissue at 4°C; assay type: in vitro ADME, human; details: brain tissue at 4°C (storage temperature of the corpses)
Experimental: In brain specimens, we cannot rule out minor agonal or postmortem changes of anidulafungin and micafungin concentrations, although anidulafungin and micafungin were stable in the brains of deceased patients for at least 96 h. Brain specimens consist of various compartments, e.g., different cells, extracellular matrix, and blood vessels. Anidulafungin and micafungin were not quantified on a cellular level or in different brain areas. Echinocandin extraction from human brain might yield slightly lower recovery than extraction from external standards. In rats, [^3H]caspofungin brain concentrations were ≤0.16 μg eq/g ([17]). In rabbits, micafungin brain concentrations were <0.19 μg/g, and those of anidulafungin were <4.0 μg/g ([18], [19]). In a biopsy sample of a brain abscess, a micafungin concentration of 0.26 μg/g was measured ([20]).

[4] = Concentration in arterial plasma of critically ill adults drawn simultaneously with CSF, HPLC-UV; assay type: in vivo, human; details: for AUC(0-t) / half-life / Cmax / Tmax: intravenous; for AUC(0-t): read-out: AUC0–24 in plasma; for half-life: read-out: t1/2 (half-life) in plasma (converted); for Cmax: read-out: Cmax (peak concentration) in plasma; for Tmax: read-out: Tmax (time to Cmax) in plasma
Experimental: CSF was taken during diagnostic lumbar puncture (LP) or via external ventricular drain (EVD) from critically ill adults treated with anidulafungin or micafungin. Simultaneously, we took 2-ml arterial blood samples. CSF and plasma were stored at –80°C.
Anidulafungin and micafungin concentrations were quantified by high-performance liquid chromatography and UV detection (HPLC-UV) as described previously ([5]). Noncompartmental pharmacokinetics was calculated with Kinetica 2000 (InnaPhase Corporation, Champs-sur-Marne, France). The area under the concentration-time curve from 0 to 24 h (AUC0–24) was computed with the log-linear method when the concentration in a trapezoid decreased or with the trapezoidal method when the concentration increased.

Candida strains = details: pharmacodynamic target, not achieved in CSF of patients 2 and 5; cited from earlier work
Experimental: In some of the CSF and brain specimens, measured anidulafungin and micafungin concentrations were below the MICs reported for relevant Candida species (i.e., 0.008 to 4.0 μg/ml) ([6]). […] However, the relevance of in vitro MIC values for antifungal activity of echinocandins in CSF and in CNS remains to be clarified. In CSF, protein binding of anidulafungin and micafungin is unk ...

[5] = Concentration in autopsy samples of cerebral cortex of deceased patients, HPLC-UV; assay type: in vivo, human
Experimental: The cerebral cortex of deceased patients who had received anidulafungin or micafungin within their last 30 days of life was sampled during autopsy, which is routinely performed for quality assurance in Austrian hospitals. Anidulafungin and micafungin were extracted from 0.2 g of tissue by addition of 250 μl of acetonitrile and 250 μl of methanol (Sigma-Aldrich, Vienna, Austria), homogenization with a Precellys homogenizer (Bertin Instruments, Montigny-le-Bretonneux, France) at 4,500 rpm (twice for 25 s, 2-s break), and centrifugation for 5 min at 8°C and 4,665 × g. For calibration, we used porcine brain samples spiked with anidulafungin or micafungin and homogenized and proceeded in the same manner. Both echinocandins were quantified by HPLC-UV at 306 nm ([5]). The lower limit of quantification was 0.05 μg/g for anidulafungin and 0.10 μg/g for micafungin. The extraction recovery from brain was ∼40% and ∼60% for anidulafungin and micafungin, respectively.

clinical = details: human, in vivo, iv
[6] = cumulative dose 200 mg; for Cmax (peak concentration) in CSF: steady state not reached
[7] = human, plasma, patient 2, cumulative dose 200 mg, treatment day 1, noncompartmental
[8] = patient 2, external ventricular drainage, treatment day 1, noncompartmental
[9] = human, plasma, patient 5, cumulative dose 200 mg, treatment day 2, noncompartmental
[10] = patient 5, external ventricular drainage, treatment day 2, noncompartmental

Caspofungin
Detection in CSF ([1]; human, in vivo): undetectable
Detection in CSF ([1]; in 9 of 11 CSF samples from children with hematological malignancies): undetectable

[^3H]caspofungin
Brain concentrations ([2]; rats): ≤ 0.16 μg eq/g

CCCCCOc1ccc(-c2ccc(-c3ccc(C(=O)N[C@H]4C[C@@H](O)[C@@H](O)NC(=O)[C@@H]5[C@@H](O)[C@@H](C)CN5C(=O)[C@H]([C@@H](C)O)NC(=O)[C@H]([C@H](O)[C@@H](O)c5ccc(O)cc5)NC(=O)[C@@H]5C[C@@H](O)CN5C(=O)[C@H]([C@@H](C)O)NC4=O)cc3)cc2)cc1 [anidulafungin] ({pTerphenylCO(4''-OnC5H11)}-[Orn(4R-OH,5R-OH)]T[Hyp][hTyr(3S-OH,4S-OH)]T[Pro(3S-OH,4S-Me)]; lactam 1-C)
Time stable in brain tissue [3]: at least 96 h
Brain concentrations ([2]; rabbits): < 4.0 µg/g
AUC(0-t) [4, 7]: 29400 ng·h/mL
half-life [4, 7]: 14.7 h
Cmax ([4]; human, plasma, patient 2, cumulative dose 200 mg, treatment day 1, sampling before and 1, 4, 8, 12, 18, 24 h after start of infusion, steady state not reached): 2720 ng/mL
Tmax ([4]; human, plasma, patient 2, cumulative dose 200 mg, treatment day 1): 1 h
level at 0.5 h ([4]; human, plasma, iv, 2500 mg, patient 3, arterial blood simultaneous with lumbar puncture, cumulative dose 2,500 mg, treatment day 24, 0.5 h from start of infusion, steady state, read-out: Plasma concn): 5070 ng/mL
level at 3 h ([4]; human, plasma, iv, patient 1, arterial blood simultaneous with lumbar puncture, cumulative dose 300 mg, treatment day 3, 3.0 h from start of infusion, steady state not reached, read-out: Plasma concn): 3830 ng/mL
Cmin (trough concentration) in plasma ([4]; patient 2, cumulative dose 200 mg, treatment day 1, steady state not reached): 770 ng/mL
Target AUC0–24/MIC ratio suggested (Candida strains): 2,782
tissue level at time at 29 h ([5]; human, cerebral cortex, 1200 mg, patient 10, cumulative dose 1,200 mg, treatment 11 days, 29 h between last administration and death, 21 h between death and sampling, LLOQ 0.05 μg/g, read-out: Concn in cerebral cortex (autopsy)): 1580 ng/g
tissue level at time at 12 h ([5]; human, cerebral cortex, 1500 mg, patient 9, cumulative dose 1,500 mg, treatment 14 days, 12 h between last administration and death, 15 h between death and sampling, LLOQ 0.05 μg/g, read-out: Concn in cerebral cortex (autopsy)): 2340 ng/g
tissue level at time at 313 h ([5]; human, cerebral cortex, 1800 mg, patient 8, cumulative dose 1,800 mg, treatment 17 days, 313 h between last administration and death, 25 h between death and sampling, LLOQ 0.05 μg/g, read-out: Concn in cerebral cortex (autopsy)): 280 ng/g
tissue level at time at 32 h ([5]; human, cerebral cortex, patient 7, cumulative dose 700 mg, treatment 6 days, 32 h between last administration and death, 14 h between death and sampling, LLOQ 0.05 μg/g, read-out: Concn in cerebral cortex (autopsy)): 210 ng/g
Kp (clinical; 200 mg): 0.07
Kp at 3 h (clinical; 300 mg): 0.01
Kp at 0.5 h (clinical; 2500 mg): < 0.002
Tmax (time to Cmax) in CSF ([6]; patient 2, external ventricular drainage, treatment day 1): 1 h
AUC0–24 in CSF [6, 8]: 2090 ng·h/mL
t1/2 (half-life) in CSF [6, 8]: 7.90 h
Cmax (peak concentration) in CSF ([6]; patient 2, external ventricular drainage, treatment day 1, sampling before and 1, 4, 8, 12, 18, 24 h after start of infusion): 660 ng/mL
Cmin (trough concentration) in CSF ([6]; patient 2, external ventricular drainage, treatment day 1, steady state not reached): 30 ng/mL

CCCCCOc1ccc(-c2cc(-c3ccc(C(=O)N[C@H]4C[C@@H](O)[C@@H](O)NC(=O)[C@@H]5[C@@H](O)[C@@H](C)CN5C(=O)[C@H]([C@H](O)CC(N)=O)NC(=O)[C@H]([C@H](O)[C@@H](O)c5ccc(O)c(OS(=O)(=O)O)c5)NC(=O)[C@@H]5C[C@@H](O)CN5C(=O)[C@H]([C@@H](C)O)NC4=O)cc3)no2)cc1 [micafungin] (X1-[Orn(4R-OH,5R-OH)]T[Hyp][hTyr(3S-OH,4S-OH,3'-OSO3H)][Gln(3R-OH)][Pro(3S-OH,4S-Me)]; lactam 1-C)
Time stable in brain tissue [3]: at least 96 h
Concentration in biopsy sample of a brain abscess [2]: 0.26 µg/g
Brain concentrations ([2]; rabbits): < 0.19 µg/g
AUC(0-t) [4, 9]: 113000 ng·h/mL
half-life [4, 9]: 12.9 h
Cmax ([4]; human, plasma, patient 5, cumulative dose 200 mg, treatment day 2, sampling before and 1, 4, 8, 12, 18, 24 h after start of infusion, steady state not reached): 8700 ng/mL
Tmax ([4]; human, plasma, patient 5, cumulative dose 200 mg, treatment day 2): 1 h
level at 2.5 h ([4]; human, plasma, iv, 1300 mg, patient 6, arterial blood simultaneous with lumbar puncture, cumulative dose 1,300 mg, treatment day 13, 2.5 h from start of infusion, steady state, read-out: Plasma concn): 3510 ng/mL
level at 16 h ([4]; human, plasma, iv, patient 4, arterial blood simultaneous with lumbar puncture, cumulative dose 200 mg, treatment day 2, 16.0 h from start of infusion, steady state not reached, read-out: Plasma concn): 1210 ng/mL
Cmin (trough concentration) in plasma ([4]; patient 5, cumulative dose 200 mg, treatment day 2, steady state not reached): 2160 ng/mL
Target AUC0–24/MIC ratio suggested (Candida strains): 5,299
Time after treatment at which the drug was still measurable in cerebral cortex ([5]; autopsy samples of deceased patients): 10 days
tissue level at time at 712 h ([5]; human, cerebral cortex, 1100 mg, patient 11, cumulative dose 1,100 mg, treatment 19 days, 712 h between last administration and death, 58 h between death and sampling, LLOQ 0.10 μg/g, read-out: Concn in cerebral cortex (autopsy)): < 100 ng/g
tissue level at time at 235 h ([5]; human, cerebral cortex, 4000 mg, patient 16, cumulative dose 4,000 mg, treatment 39 days, 235 h between last administration and death, 29 h between death and sampling, LLOQ 0.10 μg/g, read-out: Concn in cerebral cortex (autopsy)): 190 ng/g
tissue level at time at 111 h ([5]; human, cerebral cortex, intravenous, 1800 mg, patient 13, cumulative dose 1,800 mg, treatment 18 days, 111 h between last administration and death, 38 h between death and sampling, LLOQ 0.10 μg/g, read-out: Concn in cerebral cortex (autopsy)): 180 ng/g
tissue level at time at 230 h ([5]; human, cerebral cortex, intravenous, 5300 mg, patient 12, cumulative dose 5,300 mg, treatment 28 days, 230 h between last administration and death, 85 h between death and sampling, LLOQ 0.10 μg/g, read-out: Concn in cerebral cortex (autopsy)): 1520 ng/g
tissue level at time at 99 h ([5]; human, cerebral cortex, patient 14, cumulative dose 500 mg, treatment 4 days, 25 h between last administration and death, 74 h between death and sampling, LLOQ 0.10 μg/g, read-out: Concn in cerebral cortex (autopsy)): 2880 ng/g
tissue level at time at 324 h ([5]; human, cerebral cortex, patient 15, cumulative dose 300 mg, treatment 3 days, 324 h between last administration and death, 80 h between death and sampling, LLOQ 0.10 μg/g, read-out: Concn in cerebral cortex (autopsy)): < 100 ng/g
Kp (clinical; 200 mg): 0.02
Kp at 16 h (clinical; 200 mg): 0.08
level at 16 h (clinical; 200 mg): 90 ng/mL
Kp at 2.5 h (clinical; 1300 mg): 0.03
CSF concentration ([1]; cerebral aspergillosis, 2-fold maximum dose, 300 mg/day): < 0.02 µg/mL
Tmax (time to Cmax) in CSF ([6]; patient 5, external ventricular drainage, treatment day 2): 4 h
Cmin (trough concentration) in CSF ([6]; patient 5, external ventricular drainage, treatment day 2, LLOQ 0.01 μg/ml): <10 ng/mL
AUC0–24 in CSF [6, 10]: 2010 ng·h/mL
t1/2 (half-life) in CSF [6, 10]: 13.80 h
Cmax (peak concentration) in CSF ([6]; patient 5, external ventricular drainage, treatment day 2, sampling before and 1, 4, 8, 12, 18, 24 h after start of infusion): 160 ng/mL
